Ten compounds from ChEMBL document CHEMBL5230156, “Chromosome Region Maintenance 1 (XPO1/CRM1) as an Anticancer Target and Discovery of Its Inhibitor” (J Med Chem, 2021) can be followed below.

Assay [1] is described as follows: Inhibition of HIV Rev activity. On the set-up: species or system Human immunodeficiency virus.
A short description of assay [2]: Inhibition of nuclear export in human HeLa cells. The class given is functional, cell-based.
Assay [3] has as its system HCT-15. Kind of assay: Antiproliferative activity against human HCT-15 cells assessed as cell viability measured after 3 hrs by CCK-8 assay. The class given is functional, cell-based. The note with it: HCT-15, 3 h.
Assay [4] relates to HT-29. Kind of assay: Antiproliferative activity against human HT-29 cells assessed as cell viability measured after 3 hrs by CCK-8 assay. Format: functional, cell-based. The note with it: HT-29, 3 h.
The subject of assay [5] is HCT-15. Kind of assay: Inhibition of colony formation in human HCT-15 cells at 1 uM incubated for 14 days by crystal violet staining based cell clonogenic assay. The class given is functional. The note with it: HCT-15, 336 h, time 14 day.
Assay [6] concerns HCT-15. Kind of assay: Inhibition of colony formation in human HCT-15 cells at 4 uM incubated for 14 days by crystal violet staining based cell clonogenic assay. Format: functional. The note with it: HCT-15, 336 h, time 14 day.
In assay [7] the test system is HCT-15. Put plainly: Inhibition of colony formation in human HCT-15 cells at 2 uM incubated for 14 days by crystal violet staining based cell clonogenic assay. The note with it: HCT-15, 336 h, time 14 day. The class given is functional.
Assay [8] has as its system HCT-15. Kind of assay: Anticancer activity against human HCT-15 cells assessed as decrease in invading cells at 0.5 uM measured after 36 hrs. Format: functional.
Assay [9] has as its system HCT-15. Put plainly: Anticancer activity against human HCT-15 cells assessed as decrease in invading cells at 1 uM measured after 36 hrs. Format: functional.
Assay [10] relates to HCT-15. Put plainly: Antitumor activity against wild type human HCT-15 cells. Format: functional, cell-based.
The subject of assay [11] is HCT-15. Put plainly: Antitumor activity against CRM1 knockout human HCT-15 cells. The class given is functional, cell-based.
In assay [12] the test system is HeLa. Kind of assay: Growth inhibition of human HeLa cells measured after 48 hrs by MTT assay. Format: functional, cell-based.
Assay [13] concerns SGC-7901. Put plainly: Growth inhibition of human SGC-7901 cells assessed as inhibition rate at 5 uM relative to control. The class given is functional.
The test system of assay [14] is SGC-7901. Put plainly: Growth inhibition of human SGC-7901 cells assessed as inhibition rate at 50 uM relative to control. The class given is functional.
The test system of assay [15] is SGC-7901. Kind of assay: Growth inhibition of human SGC-7901 cells assessed as inhibition rate at 100 uM relative to control. Format: functional.
For assay [16], the system named is SGC-7901. Put plainly: Growth inhibition of human SGC-7901 cells assessed as inhibition rate at 150 uM relative to control. The class given is functional.
In assay [17] the test system is SMMC-7721. Put plainly: Antitumor activity against human SMMC-7721 cells measured after 6 hrs. The conditions noted are these: SMMC-7721, 6 h. Format: functional, cell-based.
Assay [18] deals with SMMC-7721. Put plainly: Antitumor activity against human SMMC-7721 cells measured after 12 hrs. The note with it: SMMC-7721, 12 h. The class given is functional, cell-based.
Assay [19] deals with SMMC-7721. Kind of assay: Antitumor activity against human SMMC-7721 cells measured after 24 hrs. The conditions noted are these: SMMC-7721, 24 h. The class given is functional, cell-based.
Assay [20] is described as follows: Cytotoxicity against human L9981 cells assessed as inhibition of tumor growth measured after 72 hrs by MTT assay. The conditions noted are these: L9981, 72 h. The class given is functional, cell-based.
A short description of assay [21]: Cytotoxicity against human NL9980 cells assessed as inhibition of tumor growth measured after 72 hrs by MTT assay. The class given is functional, cell-based. The conditions noted are these: NL9980, 72 h.
The test system of assay [22] is NSCLC. Kind of assay: Antitumor activity against human NSCLC cells. Format: functional, cell-based.
Assay [23] deals with SK-N-BE(2). Put plainly: Antiproliferative activity against human SK-N-BE(2) cells by CCK-8 assay. The class given is functional, cell-based. The note with it: SKNBE2.
For assay [24], the system named is SH-SY5Y. Put plainly: Antiproliferative activity against human SH-SY5Y cells by CCK-8 assay. The class given is functional, cell-based.

The structures appear in SMILES notation.

The compound `CC1=C(COCCC(C)(C)C)C(=O)N(Nc2ccc(C(F)(F)F)c(Cl)n2)C1=O` showed an IC50 in assay [1] of 5.5 µM.

As for `CC(C)CCNC/C=C/[S+]([O-])c1cc(C(F)(F)F)cc(C(F)(F)F)c1` (stereo not given), a half-maximal response in [2] (EC50) required 3.2 µM.

With `CC1=C(C)C(=O)N(Nc2ccc(Cl)c(Cl)n2)C1=O`, the IC50 in [3] is 1.2 µM; in [4], 0.97 µM. For the same compound, the inhibition at 1 µM in assay [5] is 58.5%; in assay [9], 67%. In assay [6], this compound yielded an inhibition at 4 µM of 91.4%. In assay [7], this compound came in with an inhibition at 2 µM of 83.2%. In addition, the inhibition at 0.5 µM in assay [8] was 44%.

Consider `[O-][S+](/C=C/CCN=C=S)c1cc(C(F)(F)F)cc(C(F)(F)F)c1` (stereo not given), for which the IC50 in [10] came to 0.151 µM; in [11], 14 µM.

With `COc1cc(/C=C/C(=O)CC(=O)/C=C/c2ccc(O)c(OC)c2)ccc1O` [CURCUMIN], 32.4 µM corresponded to half-maximal inhibition in assay [12] (IC50).

For `C=C1C(=O)[C@]23[C@H](O)[C@H]1CC[C@H]2[C@@]12CO[C@]3(O)[C@@H](O)[C@@H]1C(C)(C)CC[C@@H]2O` [ORIDONIN], in [13], the inhibition at 5 µM turned out to be 20%. Besides, the inhibition at 50 µM in [14] is 35%. Further, the inhibition at 100 µM in assay [15] came out at 75%. In addition, the inhibition at 150 µM in [16] is 90%.

For `COc1cc(/C=C/C(=O)N2CCC=CC2=O)cc(OC)c1OC` [PIPLARTINE], the concentration for half-maximal inhibition (IC50) in assay [12] turned out to be 16.3 µM.

On to `CC1=CC(=O)c2c(O)cccc2C1=O` [PLUMBAGIN], for which the IC50 came out at 36.1 µM in assay [17]; 5.41 µM in assay [18]; 2.43 µM in assay [19]; 9 µM in [20]; 7.5 µM in assay [21].

`O=C(/C=C\n1cnc(-c2cc(C(F)(F)F)cc(C(F)(F)F)c2)n1)NNc1cnccn1` [SELINEXOR] came in with an IC50 in assay [22] of 0.025 µM.

For the compound `O=C(/C=C\n1cnc(-c2cc(C(F)(F)F)cc(C(F)(F)F)c2)n1)NNc1ccccn1` [VERDINEXOR], the 50% inhibitory concentration (IC50) in assay [23] is 1.4 µM; in assay [24] it was 0.3 µM.
